Assays:
morningglory = experiment: Test C preemergence; format: in vivo, Ipomoea coccinea
Outline: (§1)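 Rated visually on 0–100 (100 = complete control) after 13–15 days under glass. Treatments went onto freshly seeded loam/sand soil or onto emerged plants at the 1- to 4-leaf stage, using a surfactant-containing solvent formulation.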

sedge, umbrella = experiment: Test B flooded paddy test; format: in vivo, Cyperus difformis; conditions: Flood, 250 g ai/ha, 0 to 100 scale where 0 is no effect and 100 is complete control
Outline: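 Post-emergence paddy-water application at the 2-leaf stage, with 3 cm flood kept for the whole test. Response was judged visually relative to controls after 13 to 15 greenhouse days, 0 indicating no effect and 100 complete control.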

velvetleaf = experiment: Test C preemergence; format: in vivo, Abutilon theophrasti
Outline: as §1

giant foxtail = experiment: Test A preemergence; format: in vivo, Setaria faberii
Outline: (§2)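 Visual injury scored 0–100 (100 = complete control) against untreated controls about 10 days after treatment in a greenhouse. Test chemicals, formulated with surfactant in non-phytotoxic solvent, were sprayed on soil preemergence or on 2-10 cm, one- to two-leaf plants postemergence.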

wheat = experiment: Test A postemergence; format: in vivo, Triticum aestivum
Outline: as §2

waterhemp = experiment: Test C preemergence; format: in vivo, Amaranthus rudis
Description: Seeds of plant species selected from blackgrass (Alopecurus myosuroides), Italian ryegrass (Lolium multiflorum), wheat, winter (winter wheat, Triticum aestivum), galium (catchweed bedstraw, Galium aparine), corn (Zea mays), large (Lg) crabgrass (Digitaria sanguinalis), giant foxtail (Setaria faberii), johnsongrass (Sorghum halepense), lambsquarters (Chenopodium album), morningglory (Ipomoea coccinea), yellow nutsedge (Cyperus esculentus), pigweed (Amaranthus retroflexus), ragweed (common ragweed, Ambrosia elatior), soybean (Glycine max), barnyardgrass (Echinochloa crus-galli), oilseed rape (Brassica napus), waterhemp (common waterhemp, Amaranthus rudis), kochia (Kochia scoparia), wild oat (Avena fatua), surinam grass (Brachiaria decumbens), foxtail, green (green foxtail, Setaria viridis), goosegrass (Eleusine indica), bromegrass, downy (downy bromegrass, Bromus tectorum), nightshade (eastern black nightshade, Solanum ptycanthum), cocklebur (common cocklebur, Xanthium strumarium), cupgrass, woolly (woolly cupgrass, Eriochloa villosa), bermudagrass (Cynodon dactylon), sunflower, (common oilseed sunflower, Helianthus annuus), Russian thistle (Salsola kali), and velvetleaf (Abutilon theophrasti) were planted into a blend of loam soil and sand and treated preemergence with test chemicals formulated in a non-phytotoxic solvent mixture which included a surfactant.
At the same time, plants selected from these crop and weed species and also barley, winter (winter barley, Hordeum vulgare), windgrass (Apera spica-venti), chickweed (common chickweed, Stellaria media), deadnettle (henbit deadnettle, Lamium amplexicaule), and canarygrass (littleseed canarygrass, Phalaris minor) were planted in pots containing Redi-Earth® planting medium (Scotts Company, 14111 Scottslawn Road, Marysville, Ohio 43041) comprising spaghnum peat moss, vermiculite, wetting agent and starter nutrients and treated with postemergence applications of test chemicals formulated in the same manner. Plants ranged in height from 2 to 18 cm (1- to 4-leaf stage) for postemergence treatments. Treated plants and controls were maintained in a greenhouse for 13 to 15 days, after which time all species were compared to controls and visually evaluated. Plant response ratings, summarized in Table C, are based on a scale of 0 to 100 where 0 is no effect and 100 is complete control. A dash (-) response means no test result.

barnyardgrass = experiment: Test A postemergence; format: in vivo, Echinochloa crus-galli
Outline: as §2

corn = experiment: Test C preemergence; format: in vivo, Zea mays
Outline: as §1

[1] = 16 g ai/ha, preemergence, scale 0 to 100 (0 no effect, 100 complete control)
[2] = 62 g ai/ha, preemergence, scale 0 (no effect) to 100 (complete control)
[3] = 125 g ai/ha, preemergence, scale 0 (no effect) to 100 (complete control)
[4] = 125 g ai/ha, 0 to 100 scale where 0 is no effect and 100 is complete control
[5] = 500 g ai/ha, 0 to 100 scale where 0 is no effect and 100 is complete control
[6] = Preemergence, 31 g ai/ha, scale 0 to 100, 0 no effect, 100 complete control
[7] = 31 g ai/ha, 0 to 100 scale, 0 no effect, 100 complete control
[8] = Preemergence, 62 g ai/ha, scale 0 to 100, 0 no effect, 100 complete control
[9] = 31 g ai/ha, 0 to 100 scale where 0 is no effect and 100 is complete control, visual, approximately 10 days
[10] = 125 g ai/ha, 0 to 100 scale, 0 no effect, 100 complete control

## COc1cnn(-c2c(C#N)cccc2Oc2ncc(Cl)cn2)c1 [Compound 137]
morningglory; [1]
  Morningglory plant response rating: 25
morningglory; [2]
  Morningglory plant response rating: 45
morningglory; [3]
  Morningglory plant response rating: 90
sedge, umbrella
  Plant response rating, Sedge, Umbrella: 0
velvetleaf; [1]
  Velvetleaf plant response rating: 40
velvetleaf; [2]
  Velvetleaf plant response rating: 65
velvetleaf; [3]
  Velvetleaf plant response rating: 85
Giant foxtail; [4]
  Plant response rating, Foxtail, Giant: 90
Giant foxtail; [5]
  Foxtail, Giant plant response rating: 100
wheat; [4]
  Wheat plant response rating: 30
wheat; [5]
  Plant response rating, Wheat: 70
waterhemp; [1]
  Waterhemp plant response rating: 100
waterhemp; [2]
  Waterhemp plant response rating: 95
waterhemp; [3]
  Waterhemp plant response rating: 100
barnyardgrass; [4]
  Barnyardgrass plant response rating: 0
barnyardgrass; [5]
  Plant response rating, Barnyardgrass: 100
corn; [1]
  Corn plant response rating: 0
corn; [2]
  Corn plant response rating: 5
corn; [3]
  Corn plant response rating: 10
corn; [6]
  Plant response rating, Corn: 5

## FCc1cccc(Oc2ncc(F)cn2)c1-n1cc(C(F)(F)F)cn1 [Compound 118]
morningglory; [1]
  Morningglory plant response rating: 40
morningglory; [2]
  Morningglory plant response rating: 100
morningglory; [3]
  Morningglory plant response rating: 100
morningglory; [6]
  Plant response rating, Morningglory: 75
sedge, umbrella
  Plant response rating, Sedge, Umbrella: 95
velvetleaf; [1]
  Velvetleaf plant response rating: 100
velvetleaf; [2]
  Velvetleaf plant response rating: 100
velvetleaf; [3]
  Velvetleaf plant response rating: 100
velvetleaf; [6]
  Plant response rating, Velvetleaf: 100
Giant foxtail; 31 g ai/ha
  Foxtail, Giant plant response rating (0 to 100 scale): 80
Giant foxtail; [4]
  Plant response rating, Foxtail, Giant: 100
wheat; [7]
  Plant response rating, Wheat: 20
waterhemp; [1]
  Waterhemp plant response rating: 85
waterhemp; [2]
  Waterhemp plant response rating: 100
waterhemp; [3]
  Waterhemp plant response rating: 100
waterhemp; [6]
  Plant response rating, Waterhemp: 100
barnyardgrass; [7]
  Plant response rating, Barnyardgrass: 30
barnyardgrass; [4]
  Plant response rating, Barnyardgrass: 80
corn; [1]
  Corn plant response rating: 10
corn; [2]
  Corn plant response rating: 70
corn; [3]
  Corn plant response rating: 85
corn; [6]
  Plant response rating, Corn: 40

## FCc1cccc(Oc2ncc(Cl)cn2)c1-n1cc(Cl)cn1 [Compound 250]
morningglory; [1]
  Morningglory plant response rating: 0
morningglory; [3]
  Morningglory plant response rating: 50
morningglory; [8]
  Plant response rating, Morningglory: 50
sedge, umbrella
  Plant response rating, Sedge, Umbrella: 35
velvetleaf; [1]
  Velvetleaf plant response rating: 100
velvetleaf; [3]
  Velvetleaf plant response rating: 100
velvetleaf; [8]
  Plant response rating, Velvetleaf: 100
Giant foxtail; [9]
  Plant response rating, Foxtail, Giant: 30
Giant foxtail; 125 g ai/ha
  Foxtail, Giant plant response rating (0 to 100 scale): 100
wheat; [7]
  Plant response rating, Wheat: 0
wheat; [10]
  Plant response rating, Wheat: 0
waterhemp; [1]
  Waterhemp plant response rating: 85
waterhemp; [3]
  Waterhemp plant response rating: 100
waterhemp; [8]
  Plant response rating, Waterhemp: 100
barnyardgrass; [7]
  Plant response rating, Barnyardgrass: 10
barnyardgrass; [10]
  Plant response rating, Barnyardgrass: 60
corn; [1]
  Corn plant response rating: 0
corn; [3]
  Corn plant response rating: 10
corn; [8]
  Plant response rating, Corn: 0

## Fc1cccc(Oc2ncc(Cl)cn2)c1-n1cc(OCC(F)(F)F)cn1 [Compound 270]
morningglory; [1]
  Morningglory plant response rating: 0
morningglory; [3]
  Morningglory plant response rating: 100
morningglory; [8]
  Plant response rating, Morningglory: 55
sedge, umbrella
  Plant response rating, Sedge, Umbrella: 90
velvetleaf; [1]
  Velvetleaf plant response rating: 0
velvetleaf; [3]
  Velvetleaf plant response rating: 100
velvetleaf; [8]
  Plant response rating, Velvetleaf: 98
Giant foxtail; [9]
  Plant response rating, Foxtail, Giant: 40
Giant foxtail; 125 g ai/ha
  Foxtail, Giant plant response rating (0 to 100 scale): 100
wheat; [7]
  Plant response rating, Wheat: 0
wheat; [10]
  Plant response rating, Wheat: 30
waterhemp; [1]
  Waterhemp plant response rating: 80
waterhemp; [3]
  Waterhemp plant response rating: 100
waterhemp; [8]
  Plant response rating, Waterhemp: 100
barnyardgrass; [7]
  Plant response rating, Barnyardgrass: 10
barnyardgrass; [10]
  Plant response rating, Barnyardgrass: 80
corn; [1]
  Corn plant response rating: 0
corn; [3]
  Corn plant response rating: 55
corn; [8]
  Plant response rating, Corn: 20

## N#Cc1cccc(Oc2ncc(Cl)cn2)c1-n1cnc(C(F)(F)F)c1 [Compound 252, 3-[(5-chloro-2-pyrimidinyl)oxy]-2-[4-(trifluoromethyl)-1H-imidazol-1-yl]benzonitrile]
morningglory; Ipomoea, pre-emergence, 16 g ai/ha, preemergence, scale 0 to 100 (0 no effect, 100 complete control), read-out: Morningglory plant response rating
  pest or weed control at 16 g/ha: 45%
morningglory; Ipomoea, pre-emergence, 125 g ai/ha, preemergence, scale 0 (no effect) to 100 (complete control), read-out: Morningglory plant response rating
  pest or weed control at 125 g/ha: 100%
morningglory; Ipomoea, pre-emergence, Preemergence, 62 g ai/ha, scale 0 to 100, 0 no effect, 100 complete control, read-out: Plant response rating, Morningglory
  pest or weed control at 62 g/ha: 95%
sedge, umbrella; Cyperus difformis, read-out: Plant response rating, Sedge, Umbrella
  pest or weed control at 250 g/ha: 80%
velvetleaf; Abutilon theophrasti, pre-emergence, 16 g ai/ha, preemergence, scale 0 to 100 (0 no effect, 100 complete control), read-out: Velvetleaf plant response rating
  pest or weed control at 16 g/ha: 75%
velvetleaf; Abutilon theophrasti, pre-emergence, 125 g ai/ha, preemergence, scale 0 (no effect) to 100 (complete control), read-out: Velvetleaf plant response rating
  pest or weed control at 125 g/ha: 100%
velvetleaf; Abutilon theophrasti, pre-emergence, Preemergence, 62 g ai/ha, scale 0 to 100, 0 no effect, 100 complete control, read-out: Plant response rating, Velvetleaf
  pest or weed control at 62 g/ha: 100%
Giant foxtail; 125 g ai/ha
  Foxtail, Giant plant response rating (0 to 100 scale): 100
Giant foxtail; Setaria faberi, pre-emergence, 240 h, 31 g ai/ha, 0 to 100 scale where 0 is no effect and 100 is complete control, visual, approximately 10 days, read-out: Plant response rating, Foxtail, Giant
  pest or weed control at 31 g/ha: 70%
Giant foxtail; Setaria faberi, pre-emergence, 240 h, 500 g ai/ha, 0 to 100 scale where 0 is no effect and 100 is complete control, read-out: Foxtail, Giant plant response rating
  pest or weed control at 500 g/ha: 100%
wheat; Triticum aestivum, post-emergence, 240 h, 31 g ai/ha, 0 to 100 scale, 0 no effect, 100 complete control, read-out: Plant response rating, Wheat
  plant injury at 31 g/ha: 20%
wheat; Triticum aestivum, post-emergence, 240 h, 125 g ai/ha, 0 to 100 scale, 0 no effect, 100 complete control, read-out: Plant response rating, Wheat
  plant injury at 125 g/ha: 30%
wheat; Triticum aestivum, post-emergence, 240 h, 500 g ai/ha, 0 to 100 scale where 0 is no effect and 100 is complete control, read-out: Plant response rating, Wheat
  plant injury at 500 g/ha: 90%
waterhemp; Amaranthus tuberculatus, pre-emergence, 16 g ai/ha, preemergence, scale 0 to 100 (0 no effect, 100 complete control), read-out: Waterhemp plant response rating
  pest or weed control at 16 g/ha: 100%
waterhemp; Amaranthus tuberculatus, pre-emergence, 125 g ai/ha, preemergence, scale 0 (no effect) to 100 (complete control), read-out: Waterhemp plant response rating
  pest or weed control at 125 g/ha: 100%
waterhemp; Amaranthus tuberculatus, pre-emergence, Preemergence, 62 g ai/ha, scale 0 to 100, 0 no effect, 100 complete control, read-out: Plant response rating, Waterhemp
  pest or weed control at 62 g/ha: 100%
barnyardgrass; Echinochloa crus-galli, post-emergence, 240 h, 31 g ai/ha, 0 to 100 scale, 0 no effect, 100 complete control, read-out: Plant response rating, Barnyardgrass
  pest or weed control at 31 g/ha: 20%
barnyardgrass; Echinochloa crus-galli, post-emergence, 240 h, 125 g ai/ha, 0 to 100 scale, 0 no effect, 100 complete control, read-out: Plant response rating, Barnyardgrass
  pest or weed control at 125 g/ha: 100%
barnyardgrass; Echinochloa crus-galli, post-emergence, 240 h, 500 g ai/ha, 0 to 100 scale where 0 is no effect and 100 is complete control, read-out: Plant response rating, Barnyardgrass
  pest or weed control at 500 g/ha: 100%
corn; Zea mays, pre-emergence, 16 g ai/ha, preemergence, scale 0 to 100 (0 no effect, 100 complete control), read-out: Corn plant response rating
  plant injury at 16 g/ha: 10%
corn; Zea mays, pre-emergence, 125 g ai/ha, preemergence, scale 0 (no effect) to 100 (complete control), read-out: Corn plant response rating
  plant injury at 125 g/ha: 70%
corn; Zea mays, pre-emergence, Preemergence, 62 g ai/ha, scale 0 to 100, 0 no effect, 100 complete control
  Corn plant response rating (crop injury, 0 = no effect, 100 = complete kill) at 62 g/ha: 40%
